# Results taken from patent US12564639B2, “Cationic nanostructures for intra-cartilage delivery of contrast agents and diagnostic uses thereof” (Northeastern University, priority 2019, dated 2026).
# Key:
# [1] = Hydrodynamic diameter estimated from molecular weight (Stokes-Einstein equation); format: physicochemical
# From the text: As such, its intra-cartilage transport diffusivities (estimated using setup in FIG. 3A) were not affected either (Table 1). The hydrodynamic diameter of Avidin and mAv was estimated from their molecular weights using the Stokes-Einstein equation. The net size of mAv was within the 10 nm limit enabling it to penetrate through the full thickness of cartilage similar to unmodified Avidin.
# [2] = Zeta potential (Zetasizer Nano-ZS90); format: physicochemical; settings: for Zeta potential (ζ): nanopure water, 0.45 mg/mL, Mean ± SD
# From the text: • 1. Use the procedure in Section F to conjugate 4 moles of biotin-PEG-IOX with Avidin at its biotin binding sites to synthesize mAv-IOX. • 2. Use Zetasizer Nano-ZS90 to detect the zeta potential of unmodified Avidin and mAv-IOX in DI water; the zeta potential (Q, mV) of Avidin and mAv-IOX should be around 18.3±0.5 mV and 8.69±0.7 mV, respectively. • 3. Obtain 3 mm diameter×1 mm height cylindrical cartilage discs with intact superficial zone (SZ) from femoropatellar grooves of 1-2-week-old bovine knee joints and freeze them in PBS containing protease inhibitors (PI) until further use. • 4. […] Use a freezing point osmometer to balance the osmolality of these contrast agent solutions to 400±20 mOsm/kg by adding 1 M sodium chloride solution dropwise. • 5. […] Secure cartilage explants using low X-ray-absorption foam inside a 20.5 mm CT scan tube. Ensure that the cartilage explant stays secured in the foam during CT imaging. • 7. Take one of the equilibrated cartilage explants from contrast agent solution and gently using Kimwipes to remove solution from the tissue surface. • 8. Set CT35 with an isotropic voxel resolution of 10 μm, 70 kVp tube voltage, 113 μA current, and 200 ms integration time method. The CT data will be saved as DICOM format. ImageJ software will automatically display Hounsfield Unit (HU) by importing DICOM images. • 9. Process the CT imaging data acquired from CT35 using ImageJ software: (i) Go to Image→Stacks→Images to Stack to convert CT imaging data to a cartilage stack. (ii) Go to Image→Stacks→Reslice and select ‘starting at top’ to acquire a new stack showing vertical section of cartilage from superficial zone (SZ) to deep zone (DZ). […] The GAG content (mg/mg wet weight) is calculated as: […]
# PEGylation of Avidin in 1:2 and 1:4 mAv was further confirmed by using H-Class Acquity UPLC (Waters Corp, Milford, MA) equipped with an Acquity UPLC BEH200 Size Exclusion Column (200 Å, 1.7 μm column, 4.6×300 mm) with 20 mM ammonium bicarbonate buffer as the mobile phase at 0.2 mL/min. Avidin was detected at 280 nm. […]
# [3] = test system: IL-1α treated cartilage explants; experiment: IL-1α treated cartilage explant culture OA model: Safranin-O histology; format: cell-based, bovine; settings: 16 days
# Procedure: (§1) 3 mm diameter cartilage explants harvested from calf knee joints were equilibrated separately in serum free culture media containing 96.2% low-glucose DMEM, 1.0% HEPES, 1.0% NEAA, 1.0% PSA, 0.4% proline and 0.4% ascorbic acid for 48 h at 37° C., 5% CO2 for 2 days prior to treatment. Tissue explants for all treatment conditions were matched for depth and location to prevent any bias. To test the biological effectiveness of mAv-Dex, equilibrated cartilage explants were treated with or without IL-1α (2 ng/mL) for 16 days in combination with (i) a single dose of 100 nM free Dex, (ii) a continuous dose of 100 nM free Dex, (iii) a single dose of 10 μM free Dex (iv) a single dose of fast release mAv-Dex (10 μM Dex) or (v) a single dose of controlled release mAv-Dex (2:1:1) (10 μM Dex). To evaluate the effect of mAv carrier alone on cartilage health, a high one-time dose of 10 μM mAv, which is 10× higher than that used to deliver 10 μM Dex in condition (v) above, was also tested in the absence of IL-1α. Note that mAv here refers to 1:4 mAv configuration. Media was changed every 2 days and IL-1α was replenished at each medium change. […] IL-1α concentration was chosen as it represents a moderately aggressive cytokine treatment.
# Cartilage explants were fixed in 4% formalin, embedded in 0.75% agarose for ease of handling, dehydrated in a graded series of ethanol and xylenes, and embedded in paraffin. Transverse sections (to obtain full thickness cartilage slices with superficial and deep zones) were taken at 5 μm thickness. These sections were stained with 0.5% Safranin O, 0.02% Fast Green and Weigert's iron hematoxylin for GAG detection. Adjacent sections underwent antigen retrieval using 0.1% hyaluronidase, 0.1% pronase in PBS for 30 min at 37° C., then were immunostained for type II collagen using 1 μg/mL mouse IgG1 (clone II-II6B3) or normal mouse IgG1 as isotype control. Antibody detection was performed using a VectaStain Elite ABC kit with 3,3-diaminobenzidine staining. Stained sections were imaged using a Zeiss Axioplan2 equipped with an AxioCam HRc camera.
# [4] = test system: chondrocytes in cartilage explants; experiment: IL-1α treated cartilage explant culture OA model: chondrocyte viability (FDA/PI); format: cell-based; settings: Day 16
# Procedure: as §1
# Chondrocyte viability was analyzed by staining cartilage explants with FDA (4.0 mg/mL) and PI (10.0 mg/mL) for live (green) and dead (red) cells, respectively. Slices were washed with PBS and imaged at 4× magnification (Nikon Eclipse Ts2R). The live and dead images were overlaid using ImageJ. At the end of the culture, tissue explants were incubated with media containing 1× resazurin sodium salt (alamarBlue assay) for 3 h in dark at 37° C. and 5% CO2. Cell metabolic activity was estimated by measuring fluorescence at 530 nm excitation and 590 nm emission wavelengths.
# [5] = test system: IL-1α treated cartilage explants; experiment: IL-1α treated cartilage explant culture OA model: nitrite release (Griess assay); format: cell-based, bovine; settings: continuous dose 100 nM, Day 8
# Procedure: 3 mm diameter cartilage explants harvested from calf knee joints were equilibrated separately in serum free culture media containing 96.2% low-glucose DMEM, 1.0% HEPES, 1.0% NEAA, 1.0% PSA, 0.4% proline and 0.4% ascorbic acid for 48 h at 37° C., 5% CO2 for 2 days prior to treatment. Tissue explants for all treatment conditions were matched for depth and location to prevent any bias. To test the biological effectiveness of mAv-Dex, equilibrated cartilage explants were treated with or without IL-1α (2 ng/mL) for 16 days in combination with (i) a single dose of 100 nM free Dex, (ii) a continuous dose of 100 nM free Dex, (iii) a single dose of 10 μM free Dex (iv) a single dose of fast release mAv-Dex (10 μM Dex) or (v) a single dose of controlled release mAv-Dex (2:1:1) (10 μM Dex). […]
# After 16 days of culture, cartilage explants were weighed and digested in proteinase K. The cumulative GAGs released to the media and residual GAGs in the digested explants were measured using the DMMB assay. Nitrite content was measured using the Griess assay as an indicator of nitric oxide (NO) release from tissues. Equal volumes of Griess reagent and culture media collected every two days were mixed and incubated at room temperature for 15 min, and absorbance at 540 nm was measured using a plate reader. […]
# [6] = test system: IL-1α treated cartilage explants; experiment: IL-1α treated cartilage explant culture OA model: GAG loss (DMMB assay); format: cell-based, bovine; settings: 16-day culture
# From the text: Tissue explants for all treatment conditions were matched for depth and location to prevent any bias. […] Note that mAv here refers to 1:4 mAv configuration. Media was changed every 2 days and IL-1α was replenished at each medium change. […] IL-1α concentration was chosen as it represents a moderately aggressive cytokine treatment. […] After 16 days of culture, cartilage explants were weighed and digested in proteinase K. The cumulative GAGs released to the media and residual GAGs in the digested explants were measured using the DMMB assay. Nitrite content was measured using the Griess assay as an indicator of nitric oxide (NO) release from tissues. Equal volumes of Griess reagent and culture media collected every two days were mixed and incubated at room temperature for 15 min, and absorbance at 540 nm was measured using a plate reader. Sodium nitrite was used as a standard.
# [7] = multiple IA injections, 2.5 mg every 3 days or 0.5 mg/kg; cited from earlier work
# [8] = test system: chondrocytes in cartilage explants; experiment: IL-1α treated cartilage explant culture OA model: chondrocyte metabolism (alamarBlue); format: cell-based; settings: Day 16
# Procedure: 3 mm diameter cartilage explants harvested from calf knee joints were equilibrated separately in serum free culture media containing 96.2% low-glucose DMEM, 1.0% HEPES, 1.0% NEAA, 1.0% PSA, 0.4% proline and 0.4% ascorbic acid for 48 h at 37° C., 5% CO2 for 2 days prior to treatment. Tissue explants for all treatment conditions were matched for depth and location to prevent any bias. To test the biological effectiveness of mAv-Dex, equilibrated cartilage explants were treated with or without IL-1α (2 ng/mL) for 16 days in combination with (i) a single dose of 100 nM free Dex, (ii) a continuous dose of 100 nM free Dex, (iii) a single dose of 10 μM free Dex (iv) a single dose of fast release mAv-Dex (10 μM Dex) or (v) a single dose of controlled release mAv-Dex (2:1:1) (10 μM Dex). To evaluate the effect of mAv carrier alone on cartilage health, a high one-time dose of 10 μM mAv, which is 10× higher than that used to deliver 10 μM Dex in condition (v) above, was also tested in the absence of IL-1α. Note that mAv here refers to 1:4 mAv configuration. […]
# Chondrocyte viability was analyzed by staining cartilage explants with FDA (4.0 mg/mL) and PI (10.0 mg/mL) for live (green) and dead (red) cells, respectively. […] Cell metabolic activity was estimated by measuring fluorescence at 530 nm excitation and 590 nm emission wavelengths.
# [9] = IA 40 mg every 3 months for 2 years; cited from earlier work
# [10] = one week following ACLT, read at 3 weeks, vs free Dex; cited from earlier work
# [11] = test system: bovine cartilage explants; settings: cited from earlier work
# [12] = Equilibrium uptake in cartilage explants (uptake ratio Ru); settings: 50% GAG depleted cartilage (mid-stage OA)
# Procedure: Cartilage explants were harvested from the femoropatellar groove of 2-3-week-old bovine knees (Research 87, Boylston, MA) with a 3 mm diameter biopsy punch. The cylindrical plugs were then sliced to obtain the superficial 1 mm layer of cartilage, and frozen until use. […] Cartilage disks were equilibrated in 300 μL of 8.5 μM of labeled Avidin, 1:2 mAv or 1:4 mAv in presence of protease inhibitors for 24 h in a 96-well plate at 37° C. on gentle shaking to prevent formation of stagnant layers. To minimize evaporation, the empty wells in the plate were filled with DI water and the plate was wrapped in parafilm. At the end of the experiment, the surfaces of each disk were quickly blotted with Kimwipes and the wet weight was measured. The equilibrium bath fluorescence was measured using a plate reader (Synergy H1, Biotek). The final concentration was calculated based on a linear calibration correlating fluorescence to concentration of labeled Avidin. The moles of solutes absorbed into the cartilage were calculated using the difference between the initial and equilibrium concentration of the bath. The concentration of solutes inside was calculated by normalizing the number of moles inside cartilage to the wet weight of the tissue. The uptake ratio (Ru) was defined as the ratio of the concentration of solutes inside the tissue (Ctissue) to that of the solute in the equilibrium bath (Cbath). […]
# [13] = rabbit, in vivo; cited from earlier work
# [14] = Intra-cartilage diffusion kinetics (non-equilibrium one-dimensional diffusion, transport chamber); settings: 3 μM upstream, 400-600 μm cartilage disk; Mean ± SD
# Procedure: The interior walls of the transport chamber were equilibrated in 0.5% nonfat-dried bovine milk solution in PBS for 15 min to lessen non-specific binding of solutes to inner walls of the transport chamber. Subsequently, the compartments of chamber were rinsed with DI water. 3 μM solution of labeled Avidin or mAv was added to the upstream chamber. A 6 mm diameter cartilage disk of 400-600 μm thickness was placed between the upstream and downstream compartments. Concentration of fluorescently labeled solutes in the downstream chamber was measured over time by exciting the downstream solution using a 480 nm laser line and detecting the emission. Non-equilibrium diffusion curves were thereby obtained by plotting normalized downstream concentration (CD) to upstream concentration (Cu) over time. Effective Diffusivity (DEFF), which is the diffusivity of solutes in cartilage while binding interactions exist within the tissue was estimated as follows:
# [formula] where L corresponds to cartilage thickness, and τLag is the time it takes to reach a steady state flux. τLag was estimated using the time-axis intercept of the linear slope of the normalized concentration versus time.
# chondrocytes = settings: incubation with chondrocytes in culture; cited from earlier work
molecule,measurement,setting,value
1:2 mAv: multi-arm Avidin containing two biotinylated 8-arm PEGs,Diameter (net size),[1],~7.6 nm
same,Zeta potential (ζ),[2],20.3 ± 0.3 mV
"C[C@@H]1C[C@H]2[C@@H]3CCC4=CC(=O)C=C[C@]4(C)[C@@]3(F)[C@@H](O)C[C@]2(C)[C@@]1(O)C(=O)CO [Dex, dexamethasone]",Safranin-O GAG staining,[3]; continuous dose 100 nM,mostly rescued
same,Safranin-O GAG staining,[3]; single dose 100 nM,marginally affected
same,Safranin-O GAG staining,[3]; single dose 10 μM Dex,protected GAG content to a greater extent than at 100 nM
same,rescue of chondrocyte viability,[4]; continuous dose 100 nM,rescued effectively
same,rescue of chondrocyte viability,[4]; single dose 100 nM,not with a single dose
same,rescue of chondrocyte viability,"[4]; single dose 10 μM Dex, listed as free Dex",not as effective
same,lower nitrite levels compared to single dose of 100 nM Dex,[5],3.5 ×
same,suppression of IL-1α induced GAG loss,[6]; continuous dose 100 nM,effectively suppress IL-1α induced GAG loss
same,suppression of IL-1α induced GAG loss,[6]; single dose 100 nM,not effective
same,suppression of IL-1α induced GAG loss,[6]; single dose 10 μM Dex,significantly suppressed IL-1α induced GAG loss
same,inflammation and cartilage protection,[7],significantly reduce inflammation and protect cartilage
same,toxicity of high multi-dose regimen,[7],systemic toxicity in vital organs
same,rescue of IL-1α reduced cell metabolism rates,[8],not rescued
"CC1(C)O[C@@H]2C[C@H]3[C@@H]4CCC5=CC(=O)C=C[C@]5(C)[C@@]4(F)[C@@H](O)C[C@]3(C)[C@]2(C(=O)CO)O1 [TCA, triamcinolone acetonide]",cartilage loss,[9],greater cartilage loss compared to saline
Av-Dex: Avidin covalently conjugated with 4 moles of Dexamethasone using its four biotin binding sites,efficacy of single low dose IA injection,[10],"suppressed injury induced joint inflammation, synovitis, incidence of osteophyte formation and restored trabecular properties at 3 weeks significantly greater than free Dex"
Avidin: cationic glycoprotein with four biotin binding sites,Diameter (net size),[1],~7.0 nm
same,"Avidin dose shown not to affect GAG loss, chondrocyte viability or biosynthesis rates",[11],less than 100 μM
same,drop of uptake following 50% GAG depletion compared to healthy condition,[12],13.2 ×
same,intra-cartilage uptake ratio,[13],180
same,presence in cartilage after IA administration,[13],present through the full thickness of cartilage two weeks following its IA administration
same,zeta potential,"[2]; in DI water, 'should be around'",around 18.3±0.5 mV
same,Zeta potential (ζ),[2],18.3 ± 0.5 mV
same,intra-cartilage effective diffusivity DEFF,[14],8.4 ± 2.0 × 10^−8 cm^2/s
RRAAAARRAAAARRAAAARR [CPC+8],uptake by chondrocytes,chondrocytes,not uptaken by the chondrocytes
